# Legend:
# Type in all cases: biochemical
# [1] = target: T1, PfATP4 (Plasmodium falciparum, UniProt A0A143ZZK9); experiment: cipargamin-sensitive Na+-dependent ATPase activity (Pi release) in parasite membranes
# T1 construct: gene ATP4; native PfATP4 in P. falciparum membrane preparations (3D7)
# [2] = target: T1, PfATP4; experiment: cipargamin-sensitive Na+-dependent ATPase activity (Pi release) in parasite membranes; resistance mutation S374R
# [3] = target: T2, PfATP4 (Plasmodium falciparum, UniProt A0A143ZZK9, S374R); experiment: cipargamin-sensitive Na+-dependent ATPase activity (Pi release) in membranes of resistant parasites
# T2 construct: gene ATP4; PfATP4 S374R in membranes from B7 parasites
# T2 sequence (A0A143ZZK9 1-1264 S374R): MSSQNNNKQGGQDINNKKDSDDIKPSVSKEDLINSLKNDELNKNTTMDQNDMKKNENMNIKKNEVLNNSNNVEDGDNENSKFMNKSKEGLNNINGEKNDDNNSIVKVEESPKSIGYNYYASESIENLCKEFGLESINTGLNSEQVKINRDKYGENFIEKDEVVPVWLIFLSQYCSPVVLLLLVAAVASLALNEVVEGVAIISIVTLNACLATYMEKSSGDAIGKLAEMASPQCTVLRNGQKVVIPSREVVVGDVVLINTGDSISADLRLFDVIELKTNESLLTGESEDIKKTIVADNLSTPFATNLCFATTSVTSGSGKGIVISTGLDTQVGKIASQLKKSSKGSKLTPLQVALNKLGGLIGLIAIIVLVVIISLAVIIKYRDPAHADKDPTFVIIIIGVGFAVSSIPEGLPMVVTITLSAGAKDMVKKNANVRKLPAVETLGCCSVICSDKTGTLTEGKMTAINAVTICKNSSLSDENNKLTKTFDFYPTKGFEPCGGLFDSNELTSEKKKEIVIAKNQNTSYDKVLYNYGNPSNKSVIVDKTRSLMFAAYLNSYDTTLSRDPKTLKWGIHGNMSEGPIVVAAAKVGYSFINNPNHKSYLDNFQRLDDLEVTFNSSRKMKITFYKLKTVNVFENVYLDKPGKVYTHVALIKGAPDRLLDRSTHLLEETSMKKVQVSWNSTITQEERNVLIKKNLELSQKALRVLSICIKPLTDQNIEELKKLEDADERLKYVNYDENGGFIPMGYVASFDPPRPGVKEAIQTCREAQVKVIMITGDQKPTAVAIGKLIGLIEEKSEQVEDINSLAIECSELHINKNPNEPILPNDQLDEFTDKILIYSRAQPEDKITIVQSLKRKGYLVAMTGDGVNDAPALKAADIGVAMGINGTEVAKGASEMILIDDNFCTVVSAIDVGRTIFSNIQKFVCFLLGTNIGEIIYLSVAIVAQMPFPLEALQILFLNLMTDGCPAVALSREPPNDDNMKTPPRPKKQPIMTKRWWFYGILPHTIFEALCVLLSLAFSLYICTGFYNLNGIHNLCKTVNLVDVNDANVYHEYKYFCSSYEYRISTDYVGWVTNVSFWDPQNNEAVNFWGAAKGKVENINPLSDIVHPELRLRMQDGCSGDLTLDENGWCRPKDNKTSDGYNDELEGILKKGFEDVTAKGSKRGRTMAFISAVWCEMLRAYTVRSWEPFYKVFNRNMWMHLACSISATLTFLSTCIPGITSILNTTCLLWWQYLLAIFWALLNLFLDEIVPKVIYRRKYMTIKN
SMILES,IC50 [1] [nM],IC50 [2] [nM],IC50 [3] [nM]
Cc1nc(N[C@@H](C)c2ccccc2)c2ccccc2c1C#N [MB10],62 ± 9,,
"CCC(CC)Nc1nc(C)c(C#N)c2ccccc12 [MB14, 3-methyl-1-(1-ethylpropylamino)isoquinoline-4-carbonitrile]",,52 ± 16,429 ± 73
